Results: patent US9617276B2, “Compounds and methods for treating AIDS and HIV infections” (priority 2009, dated 2017)
“And” between values parts separate entries of the source, which are not always exact repeats. Identical values can stand only once. Like-named read-outs stand apart in the source and are kept apart here.

Columns and labels:
[1] = cytotoxicity CC50; type: cell-based, Human; conditions: human
[2] = test system: HIV-1MDR/JSL; assay: microbe, parasite or virus in culture; type: cell-based; conditions: for EC50: Human immunodeficiency virus 1, read-out: EC50 (μM), HIV-1MDR/JSL (NSI); for n-fold change of EC50, HIV-1MDR/JSL: compared to wild-type HIV-1ERS104pre
Protocol: (§1) The susceptibility of HIV-1LAI and primary HIV-1 isolates to various drugs were determined as described previously (Koh et al. 2003 Antimicrob Agents Chemother 47:3123-9). Briefly, MT-2 cells (2×10^4/ml) were exposed to 100 50% tissue culture infectious doses (TCID50S) of HIV-1LAI, in the presence or absence of various concentrations of drugs in 96-well microculture plates and were incubated at 37° C. for 7 days. After 100 μl of the medium was removed from each well, 3-(4,5-dimetylthiazol-2-yl)-2,5-diphenyltetrazolium bromide (MTT) solution (10 μl, 7.5 mg/ml in phosphate-buffered saline) was added to each well in the plate, followed by incubation at 37° C. for 3 h. […] All assays were performed in duplicate or triplicate. To determine the susceptibility of primary HIV-1 isolates to drugs, phytohemagglutinin-activated peripheral blood mononuclear cells (PHA-PBMCs; 106/ml) were exposed to 50 TCID50S of each. The target cells were exposed to HIV-1104pre or drug-resistant HIV-1 in the presence or absence of various concentrations of drugs and were incubated for 7 days. Upon the conclusion of the culture, the amounts of p24 Gag protein in the supernatants were determined using a fully automated chemiluminescent enzyme immunoassay system (Lumipulse F; Fujirebio Inc., Tokyo, Japan) (Maeda et al. 2001 J Biol Chem 276:35194-200). To determine the drug susceptibility of certain laboratory HIV-1 strains, MT-4 cells were used as target cells. In brief, MT-4 cells (10^5/ml) were exposed to 100 TCID50S of drug-resistant HIV-1 strains in the presence or absence of various concentrations of drugs and on day 7 of culture, the supernatant was harvested and the amounts of p24 Gag protein were determined. […] All assays were performed in duplicate or triplicate.
(§2) These clinical strains contained 9 to 14 amino acid substitutions in the protease-encoding region, which have reportedly been associated with HIV-1 resistance to various PIs.
(§3) Amino acid substitutions identified in the protease-encoding region compared to the consensus type B sequence cited from the Los Alamos database include L63P in HIV-1ERS104pre; L10I, K14R, L33I, M36I, M46I, F53I, K55R, I62V, L63P, A71V, G73S, V82A, L90M, and I93L in HIV-1MDR/B; L10I, I15V, K20R, L24I, M36I, M46L, I54V, I62V, L63P, K70Q, V82A, and L89M in HIV-1MDR/C; L10I, V11I, T12E, I15V, L19I, R41K, M46L, L63P, A71T, V82A, and L90M in HIV-1MDR/G; L10I, K14R, R41K, M46L, I54V, L63P, A71V, V82A, L90M, I93L in HIV-1MDR/TM; L10I, K43T, M46L, I54V, L63P, A71V, V82A, L90M, and Q92K in HIV-1MDR/MM; L10I, L24I, I33F, E35D, M36I, N37S, M46L, I54V, R57K, I62V, L63P, A71V, G73S, and V82A in HIV-1MDR/JSL. HIV-1ERS104pre served as a source of wild-type HIV-1. EC50s were determined by using PHA-PBMs as target cells, and inhibition of p24 Gag protein production by each drug was used as an end point. Numbers in parentheses represent n-fold changes of EC50s for each isolate compared to EC50s for wild-type HIV-1ERS104pre.

[3] = test system: HIV-1MDR/MM; assay: microbe, parasite or virus in culture; type: cell-based; conditions: for EC50: Human immunodeficiency virus 1, read-out: EC50 (μM), HIV-1MDR/MM (NSI); for n-fold change of EC50, HIV-1MDR/MM: compared to wild-type HIV-1ERS104pre
Protocol: as §1, §2, §3

[4] = test system: HIV-1LAI; assay: drug susceptibility, MT-2 cells, MTT assay, HIV-1LAI; type: cell-based; conditions: for Selectivity Index: ratio of CC50 to EC50 against HIV-1LAI
Protocol: (§4) All assays were performed in duplicate or triplicate. […] All assays were performed in duplicate or triplicate.
(§5) Each selectivity index denotes a ratio of CC50 to EC50 against HIV-1LAI N.D., not done.

[5] = test system: HIV-1NL4-3; assay: in vitro selection of PI-resistant HIV-1 variants in MT-4 cells; type: cell-based; conditions: HIV-1NL4-3 in MT-4 cells, increasing drug concentrations
Text: The culture supernatants were harvested on day 7 and used to infect fresh MT-4 cells for the next round of culture in the presence of increasing concentrations of each drug.

[6] = test system: HIV-2ROD; assay: drug susceptibility, MT-2 cells, MTT assay, HIV-2ROD; type: cell-based
Protocol: as §4, §5

[7] = test system: HIV-2EHO; assay: drug susceptibility, MT-2 cells, MTT assay, HIV-2EHO; type: cell-based
Protocol: as §4, §5

[8] = test system: HIV-1ERS104pre (wild-type); assay: p24 Gag inhibition in PHA-PBMCs, HIV-1ERS104pre; type: cell-based; conditions: mean ± 1 SD
Protocol: as §1, §2, §3

[9] = test system: HIV-1MDR/G; type: cell-based; conditions: for EC50 (μM), HIV-1MDR/G (SI): PHA-PBMCs, p24 Gag; for n-fold change of EC50, HIV-1MDR/G: compared to wild-type HIV-1ERS104pre
Protocol: as §1, §2, §3

[10] = test system: HIV-1MDR/B; type: cell-based; conditions: for EC50 (μM), HIV-1MDR/B (SI): PHA-PBMCs, p24 Gag; for n-fold change of EC50, HIV-1MDR/B: compared to wild-type HIV-1ERS104pre
Protocol: as §1, §2, §3

[11] = test system: HIV-1MDR/C; type: cell-based; conditions: for EC50 (μM), HIV-1MDR/C (SI): PHA-PBMCs, p24 Gag; for n-fold change of EC50, HIV-1MDR/C: compared to wild-type HIV-1ERS104pre
Protocol: as §1, §2, §3

[12] = test system: HIV-1MDR/TM; type: cell-based; conditions: for EC50 (μM), HIV-1MDR/TM (SI): PHA-PBMCs, p24 Gag; for n-fold change of EC50, HIV-1MDR/TM: compared to wild-type HIV-1ERS104pre
Protocol: as §1, §2, §3

[13] = test system: HIV-1; assay: antiviral assay (IC50); type: cell-based
Protocol: The inhibitory potencies of acyclic and cyclic inhibitors were measured by the assay protocol of Toth and Marshall (Toth, M. V.; Marshall, G. R. A simple, continuous fluorometric assay for HIV protease. Int. J. Pep. Protien Res. 1990, 36, 544-55).

[14] = test system: multidrug-resistant clinical HIV-1 isolates (HIV-1MDR); assay: microbe, parasite or virus in culture; type: cell-based
Protocol: as §1, §2, §3

[15] = test system: MT-2 cells; assay: cytotoxicity CC50; type: cell-based, Human; conditions: MT-2 cells
[16] = Human immunodeficiency virus 1, MT2, MT-2 cells, MTT assay, mean ± 1 SD, read-out: EC50 (μM) for HIV-1LAI
[17] = Human immunodeficiency virus 2, MT2, MT-2 cells, MTT assay, mean ± 1 SD, read-out: EC50 (μM) for HIV-2ROD
[18] = Human immunodeficiency virus 2, MT2, MT-2 cells, MTT assay, mean ± 1 SD, read-out: EC50 (μM) for HIV-2EHO
[19] = Human immunodeficiency virus 1, MT2, read-out: EC50 (μM) for HIV-1LAI
[20] = Human immunodeficiency virus 1, Table 2, read-out: IC50
[21] = Human immunodeficiency virus 1, read-out: IC50
[22] = Human immunodeficiency virus 2, MT2, read-out: EC50 (μM) for HIV-2ROD
[23] = Human immunodeficiency virus 2, MT2, read-out: EC50 (μM) for HIV-2EHO

Structure (SMILES) | EC50 [2] [µM] | EC50 [3] [µM] | EC50 [4, 16] [µM] | passage by which HIV-1 variants replicating in the presence of 1 μM drug emerged [5] [passages] | EC50 (μM), HIV-1ERS104pre (wild-type SI) [8] [µM] | EC50 (μM), HIV-1MDR/G (SI) [9] [µM] | n-fold change of EC50, HIV-1MDR/G [9] | EC50 (μM), HIV-1MDR/B (SI) [10] [µM] | n-fold change of EC50, HIV-1MDR/B [10] | EC50 (μM), HIV-1MDR/C (SI) [11] [µM] | n-fold change of EC50, HIV-1MDR/C [11] | EC50 (μM), HIV-1MDR/TM (SI) [12] [µM] | n-fold change of EC50, HIV-1MDR/TM [12] | n-fold change of EC50, HIV-1MDR/JSL [2] | n-fold change of EC50, HIV-1MDR/MM [3] | CC50 [1] [nM] | EC50 [4, 19] [µM] | Selectivity Index [4] | EC50 [6, 22] [µM] | EC50 [7, 23] [µM] | also measured
CC(C)CN(C[C@@H](O)[C@H](Cc1ccccc1)NC(=O)O[C@H]1CCOC1)S(=O)(=O)c1ccc(N)cc1 [APV, Amprenavir] | 0.62 ± 0.02 | 0.21 ± 0.222 | 0.024 ± 0.008 | 20 | – | – | – | – | – | – | – | – | – | – | – | – | – | – | – | – | CC50 ([1]; MT-2 cells, read-out: CC50): > 100000 nM; EC50 [6, 17]: 0.42 ± 0.1 µM; EC50 [7, 18]: 0.12 ± 0.03 µM
COC(=O)N[C@H](C(=O)N[C@@H](Cc1ccccc1)[C@@H](O)CN(Cc1ccc(-c2ccccn2)cc1)NC(=O)[C@@H](NC(=O)OC)C(C)(C)C)C(C)(C)C [AZV, Atazanavir] | 0.43 ± 0.036 | 0.18 ± 0.021 | – | – | 0.002 ± 0.001 | 0.033 ± 0.024 | (17) | 0.20 ± 0.10 | (100) | 0.065 ± 0.008 | (33) | 0.065 ± 0.008 | (33) | (215) | (39) | – | – | – | – | – | –
COc1ccc2c(c1)OCCCC=CCCCCN(CC(O)C(Cc1ccccc1)NC(=O)OC1COC3OCCC13)S2(=O)=O (stereo not drawn) [Compound 14b] | 0.21 ± 0.032 | 0.055 ± 0.025 | – | 37 | – | 0.028 ± 0.004 | (4) | 0.089 ± 0.016 | (13) | 0.029 ± 0.001 | (4) | 0.072 ± 0.014 | (10) | – | (8) | 33100 ± 2500 | 0.004 ± 0.001 | 8,280 | 0.025 ± 0.002 | 0.018 ± 0.013 | EC50 (μM), HIV-1ERS104pre (wild-type SI) ([8]; listed as GRL-286): 0.007 µM and 0.007 ± 0.002 µM; IC50 [13, 20]: < 10 nM; IC50 [13, 21]: < 49 nM
COc1ccc2c(c1)OCCC=CCCCCN(CC(O)C(Cc1ccccc1)NC(=O)OC1COC3OCCC13)S2(=O)=O (stereo not drawn) [Compound 14c] | 0.073 ± 0.07 | 0.033 ± 0.01 | – | – | – | – | – | – | – | – | – | – | – | – | – | 48800 ± 1300 | 0.002 ± 0.001 | – | 0.017 ± 0.001 | 0.01 ± 0.007 | IC50 [13, 20]: < 10 nM; IC50 ([13]; Human immunodeficiency virus 1, text b167): 2 nM; IC50 [13, 21]: 2 nM
Cc1cccc(C)c1OCC(=O)N[C@@H](Cc1ccccc1)[C@@H](O)C[C@H](Cc1ccccc1)NC(=O)[C@H](C(C)C)N1CCCNC1=O [LPV, lopinavir] | > 1 | > 1 | 0.039 ± 0.006 | – | 0.034 ± 0.002 | 0.26 ± 0.04 | (8) | > 1 | > 29 | > 1 | > 29 | > 1 | > 29 | > 29 | > 29 | > 100000 | – | >2,560 | – | – | EC50 ([14]; Human immunodeficiency virus 1, read-out: EC50 with multidrug-resistant clinical HIV-1 isolates (mostly)): > 1000 nM; EC50 [6, 17]: 0.028 ± 0.004 µM; EC50 [7, 18]: 0.035 ± 0.025 µM
CCC[C@@]1(CCc2ccccc2)CC(O)=C([C@H](CC)c2cccc(NS(=O)(=O)c3ccc(C(F)(F)F)cn3)c2)C(=O)O1 [TPV, Tipranavir] | 0.23 ± 0.049 | 0.36 ± 0.06 | – | – | 0.12 ± 0.03 | 0.24 ± 0.08 | (2) | 0.18 ± 0.009 | (2) | 0.38 ± 0.079 | (3) | 0.38 ± 0.05 | (3) | (2) | (3) | – | 0.17 ± 0.005 | 320 | 0.33 ± 0.07 | 0.3 ± 0.15 | CC50 [15]: 54100 ± 2100 nM; EC50 ([14]; Human immunodeficiency virus 1, read-out: greatest EC50 value against the clinical isolates): 380 nM
